Reference: PMC2866327, “Designed Inhibitors of Insulin-Degrading Enzyme Regulate the Catabolism and Activity of Insulin” (PLoS ONE, 2010)
“And” between values parts separate entries of the source, which are not always exact repeats. Identical values can stand only once. Like-named read-outs stand apart in the source and are kept apart here. Each block holds one compound with its values, some of them ahead of it.

Key:
IDE [1] = target: T1, IDE (Homo sapiens, UniProt P14735); assay: In vitro IDE enzymatic assay (hydrolysis of FRET1, SP1, FAβB, 125I-insulin or insulin by HTRF); format: biochemical; parameters: made in house; host or cells: bacteria; conditions: for IC50: commercially available hydroxamic acids
T1 sequence (P14735 whole entry): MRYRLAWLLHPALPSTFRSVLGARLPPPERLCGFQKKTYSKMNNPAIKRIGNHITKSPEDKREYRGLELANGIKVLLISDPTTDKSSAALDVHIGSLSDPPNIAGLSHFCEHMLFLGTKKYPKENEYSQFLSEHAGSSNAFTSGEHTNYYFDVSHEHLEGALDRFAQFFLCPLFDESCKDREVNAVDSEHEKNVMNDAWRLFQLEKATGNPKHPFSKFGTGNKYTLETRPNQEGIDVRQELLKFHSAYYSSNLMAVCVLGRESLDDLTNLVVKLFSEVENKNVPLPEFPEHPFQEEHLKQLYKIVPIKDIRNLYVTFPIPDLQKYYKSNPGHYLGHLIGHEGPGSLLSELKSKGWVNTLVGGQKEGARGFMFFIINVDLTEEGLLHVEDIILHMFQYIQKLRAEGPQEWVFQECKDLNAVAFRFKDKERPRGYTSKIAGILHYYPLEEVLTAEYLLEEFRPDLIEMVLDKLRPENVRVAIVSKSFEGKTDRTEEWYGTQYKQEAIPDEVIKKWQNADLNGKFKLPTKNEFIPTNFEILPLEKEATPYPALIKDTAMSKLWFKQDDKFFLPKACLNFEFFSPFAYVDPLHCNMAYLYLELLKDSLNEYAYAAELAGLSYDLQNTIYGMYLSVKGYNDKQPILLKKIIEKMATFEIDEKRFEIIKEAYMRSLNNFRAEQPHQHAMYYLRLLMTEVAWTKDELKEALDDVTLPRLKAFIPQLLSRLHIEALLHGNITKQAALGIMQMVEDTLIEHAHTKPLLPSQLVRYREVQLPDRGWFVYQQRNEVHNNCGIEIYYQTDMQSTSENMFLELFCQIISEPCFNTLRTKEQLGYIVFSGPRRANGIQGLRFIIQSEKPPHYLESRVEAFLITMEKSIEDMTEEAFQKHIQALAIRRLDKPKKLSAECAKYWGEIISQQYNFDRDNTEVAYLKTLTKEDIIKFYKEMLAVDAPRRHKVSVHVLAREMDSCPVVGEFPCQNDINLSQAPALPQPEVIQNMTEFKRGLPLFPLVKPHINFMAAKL
Method: Degradation of unmodified recombinant human insulin (Sigma-Aldrich) and FITC-ins [28] (Invitrogen) was assessed using a homogeneous time-resolved fluorescence (HTRF)-based assay (CIS-Bio).

MMP-3 = conditions: best known target MMP-3; no reference given; cited from earlier work
cathepsin D = target: T2, cathepsin D (Bos taurus, UniProt P80209); assay: Cathepsin D activity (Cathepsin D Assay Kit); format: biochemical
T2 construct: purchased Sigma-Aldrich
T2 sequence (P80209 45-390): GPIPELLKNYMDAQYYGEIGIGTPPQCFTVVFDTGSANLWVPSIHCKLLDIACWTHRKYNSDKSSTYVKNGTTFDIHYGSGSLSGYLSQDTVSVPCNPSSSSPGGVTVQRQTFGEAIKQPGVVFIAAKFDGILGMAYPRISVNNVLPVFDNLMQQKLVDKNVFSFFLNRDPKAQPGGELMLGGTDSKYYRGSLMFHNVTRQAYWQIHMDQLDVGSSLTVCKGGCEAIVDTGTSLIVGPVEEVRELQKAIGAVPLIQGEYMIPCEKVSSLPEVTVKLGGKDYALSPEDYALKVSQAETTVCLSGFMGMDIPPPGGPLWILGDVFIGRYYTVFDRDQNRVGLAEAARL
Method: Activity of cathepsin B was assessed by monitoring hydrolysis of Z-LR-AMC (Enzo Life Sciences International), that of cathepsin D using the Cathepsin D Assay Kit (Sigma-Aldrich), and that of the 20S proteasome using the 20S Proteasome Assay Kit for Drug Discovery (Enzo Life Sciences International).

CHO-IR cells [2] = assay: Cell-based extracellular insulin degradation assay, CHO-IR cells
Excerpt: (§1) Recombinant human insulin (Sigma) was applied to CHO-IR cells or HeLa cells grown to near-confluency on 96-well plates under normal cell culture conditions, and its disappearance over time in the presence of different concentrations of IDE inhibitors or vehicle was quantified using a HTRF-based insulin assay (CIS-Bio). CHO-IR cells were a generous gift from Dr. Michel Bernier (National Instutute on Aging) and HeLa cells were purchased from American Type Culture Collection.

HeLa cells = assay: Cell-based extracellular insulin degradation assay, HeLa cells
Excerpt: as §1

CHO-IR cells [3] = assay: Live-cell imaging of intracellular insulin catabolism (FITC-ins); format: cell-based; conditions: FITC-ins-loaded CHO-IR cells, Ii1 10 µM, 22°C
Method: CHO-IR cells were cultured on poly-D-lysine glass bottom culture dishes (MatTek Corp.), loaded with FITC-ins (2 µM; Invitrogen) for 2 h at 37°C, washed with Hank's balanced salt solution (HBSS), then imaged consecutively at fixed intervals by fluorescence microscopy at 22°C. Intracellular and extracellular fluorescence in the resulting images was quantified using MetaMorph software according to manufacturer's recommendations (Molecular Devices).

[4] = system: IR autophosphorylation (Tyr 1146) in CHO-IR cells; assay: IR autophosphorylation assay (ELISA); format: cell-based, human; conditions: CHO-IR cells cold-loaded with insulin, 10 µM inhibitor, 5 min at 37°C
Method: CHO-IR cells were grown to near confluency in 6-well plates, washed, then starved for 6 h in insulin-free medium (DMEM/0.1% BSA). Cells were then cold-loaded with human insulin essentially as described. Briefly, after cooling the cells to 4°C, the medium was replaced with ice-cold HBSS/1% BSA supplemented with insulin (10 nM), incubated at 4°C for 1 h, washed 3 times with ice-cold HBSS/1% BSA. After addition of ice-cold HBSS/1% BSA supplemented with IDE inhibitors (10 µM) or DMSO, the cells were incubated at 37°C for 5 min, then rapidly cooled on ice. Cell lysates were harvested using manufacturer-provided cell-lysis buffer (Cell Signaling Technology) supplemented with additional phosphatase inhibitors (Millipore). IR autophosphorylation (Tyr 1146) and total IR levels were quantified by ELISAs (Cell Signaling Technology), and confirmed by western blotting with the same antibodies used for ELISAs or GAPDH as a loading control.

CHO-IR cells [5] = assay: Quantification of prebound 125I-insulin catabolism; format: cell-based; conditions: 10 µM inhibitor, 5 min at 37°C
Method: Confluent monolayers of CHO-IR cells grown in 6-well culture dishes were cold loaded with 240 pM ^125I-insulin for 1 h and washed 3 times with ice-cold HBSS/1% BSA. […] Following harvesting of cells by scraping, ^125I levels were quantified by gamma counter (Beckman).

CHO-IR cells [6] = system: CHO-IR cells
MMP-8 = conditions: best known target MMP-8; no reference given; cited from earlier work
TACE = conditions: best known target TACE; no reference given; cited from earlier work
IDE [7] = target: T1, IDE; conditions: cited from earlier work; for IC50: known IDE inhibitors, no reference given
IDE [8] = target: T1, IDE; assay: High-throughput screening, Aβ degradation assay; format: biochemical; conditions: high-throughput screening hit
Excerpt: The few IDE inhibitors currently in use are generally non-selective and/or highly toxic, and all suffer from extremely low potency, requiring mM concentrations to achieve complete inhibition (Table S1). To develop improved inhibitors of IDE, we initially conducted high-throughput screening on ∼115,000 compounds, using a previously developed Aβ degradation assay. Although several inhibitors were discovered, most of these were either toxic, thiol-alkylating compounds [18] […] Among the remaining inhibitors, just a single compound, known as nullscript

IDE [9] = target: T1, IDE; assay: Cell-based assays (not shown)
MMP-2 = conditions: best known target MMP-2; no reference given; cited from earlier work
MMP-13 = conditions: best known target MMP-13; no reference given; cited from earlier work
[10] = focused library of retro-inverso peptide hydroxamates Xaa-Arg-Tyr, modification at P1', Fig. 2B, read-out: Ki

Compound: N=C(N)NCCC[C@@H](NC(=O)[C@H](N)Cc1ccc(O)cc1)C(=O)N[C@@H](CC(=O)NO)Cc1cccc2ccccc12 [1-naphthylalanine]
- Ki (IDE [1]; [10]): 700 nM

Compound: COc1ccc(S(=O)(=O)N(CC(=O)NO)CC(C)C)cc1 [MMP-3 Inhibitor II, reference compound]
- IC50 (MMP-3): 130 nM
- IC50 (IDE [1]): > 100000 nM

Compound: N=C(N)NCCC[C@H](NC(=O)[C@@H](CC(=O)NO)Cc1ccc2ccccc2c1)C(=O)N[C@@H](Cc1c[nH]c2ccccc12)C(=O)N[C@@H](CCC(=O)O)C(N)=O [Ii1]
- inhibition of cathepsin D (cathepsin D): not
- IC50 for inhibition of degradation of extracellular insulin (CHO-IR cells [2]): comparable to that obtained in vitro
- insulin catabolism (progress curve) (CHO-IR cells [2]; Ii1 10 µM): completely inhibited
- IC50 for inhibition of degradation of extracellular insulin (HeLa cells): comparable to that obtained in vitro
- insulin catabolism (progress curve) (HeLa cells; Ii1 10 µM): completely inhibited
- intra- and extracellular FITC fluorescence over time (CHO-IR cells [3]): remained essentially constant
- insulin-stimulated IR autophosphorylation [4]: consistently potentiated
- decrease of prebound 125I-insulin (CHO-IR cells [5]): inhibited completely
- toxicity (CHO-IR cells [6]): No toxicity
- Hill slopes for inhibition (IDE [1]; all substrates tested): < 1
- Ki (IDE [1]; conventional peptide hydroxamates, Fig. 1, read-out: Ki): 1.7 nM and ~1.7 nM
- mode of inhibition (IDE [1]; hydrolysis of Aβ): purely competitive
- mode of inhibition (IDE [1]; hydrolysis of insulin): purely competitive
- Ki (IDE [1]; ki^app, Substrate: 125I-Ins): 16.3 ± 4.2 nM
- Ki (IDE [1]; ki^app, Substrate: FAβB): 15.7 ± 2 nM
- Ki (IDE [1]; ki^app, Substrate: HTRF-Ins): 16.6 ± 3.1 nM
- Ki (IDE [1]; ki^app, Substrate: SP1): 2.55 ± 0.84 nM

Compound: CC(=O)N[C@H](CCC(=O)NCCNc1cccc2c(S(=O)(=O)O)cccc12)C(=O)N[C@H](Cc1ccc(O)cc1)C(=O)N[C@H](Cc1ccc(C(=O)c2ccccc2)cc1)C(=O)N[C@@H](CC(=O)NO)Cc1ccc2ccccc2c1 [ML3-XF, Hx-2Nap-Bpa-Tyr-Glu(EDANS)-Ac]
- insulin-stimulated IR autophosphorylation [4]: consistently potentiated
- decrease of prebound 125I-insulin (CHO-IR cells [5]): inhibited completely

- IC50 (IDE [1]): > 100000 nM
Compound: COc1ccc(S(=O)(=O)N2Cc3ccccc3C[C@@H]2C(=O)NO)cc1 [MMP-8 Inhibitor I, reference compound]
- IC50 (MMP-8): 4 nM

- IC50 (IDE [1]): 3000 nM
Compound: CC(C)C[C@H](CC(=O)NO)C(=O)N[C@@H](Cc1ccc2ccccc2c1)C(=O)N[C@@H](C)C(=O)NCCN [TAPI-1, reference compound]
- IC50 (TACE): 100 nM

Compound: CNC(=O)[C@H](Cc1c[nH]c2ccccc12)NC(=O)[C@@H](CC(=O)NO)CC(C)C [GM6001 (Galardin), reference compound]
- IC50 (IDE [1]): 6000 nM

Compound: N=C(N)NCCC[C@@H](NC(=O)[C@H](N)Cc1ccc(O)cc1)C(=O)N[C@@H](CC(=O)NO)Cc1ccc(F)cc1 [4-fluorophenylalanine]
- Ki (IDE [1]; [10]): 7000 nM

Compound: c1cnc2c(c1)ccc1cccnc12 [1,10 phenanthroline]
- IC50 (IDE [7]): 300000 nM

- IC50 values (IDE [8]): submicromolar
- effect in cell-based assays (IDE [9]): ineffective
- IC50 (IDE [1]): 900 nM
Compound: O=C(CCCN1C(=O)c2cccc3cccc(c23)C1=O)NO [Nullscript]

Compound: CC(C)(C)c1ccc(C[C@H](CC(=O)NO)NC(=O)[C@@H](CCCNC(=N)N)NC(=O)[C@H](N)Cc2ccc(O)cc2)cc1 [4-(tert-butyl)-phenylalanine]
- Ki (IDE [1]; [10]): 16000 nM

- IC50 (IDE [1]): > 100000 nM
Compound: O=C(NO)[C@@H](Cc1ccccc1)NS(=O)(=O)c1ccc(-c2ccccc2)cc1 [MMP-2/9 Inhibitor II, reference compound]
- IC50 (MMP-2): 17 nM

Compound: N#Cc1ccc(-c2ccc(OCCC(=O)NO)cc2)cc1 [MMP-3 Inhibitor VII, reference compound]
- IC50 (MMP-3): 25 nM
- IC50 (IDE [1]): > 100000 nM

- IC50 (IDE [1]): 9000 nM
Compound: CC(C)C[C@H](CC(=O)NO)C(=O)N[C@@H](Cc1ccc2ccccc2c1)C(=O)N[C@@H](C)C(N)=O [TAPI-0, reference compound]
- IC50 (MMP-13): 0.2 nM

Compound: N=C(N)NCCC[C@@H](NC(=O)[C@H](N)Cc1ccc(O)cc1)C(=O)N[C@@H](CC(=O)NO)C(c1ccccc1)c1ccccc1 [diphenylalanine]
- Ki (IDE [1]; [10]): > 500000 nM

Compound: N=C(N)NCCC[C@@H](NC(=O)[C@H](N)Cc1ccc(O)cc1)C(=O)N[C@@H](CC(=O)NO)Cc1ccc2ccccc2c1 [2-naphthylalanine]
- gain in potency relative to Phe at P1' (IDE [1]; retro-inverso library): ~100 fold

Compound: CCN1C(=O)C=CC1=O [N-ethylmaleimide]
- IC50 (IDE [7]): 220000 nM

- IC50 (IDE [1]): > 100000 nM
Compound: CNC(=O)C(CCc1ccccc1)NC(=O)C(CC(=O)NO)CC(C)C (stereo not shown) [MMP Inhibitor III, reference compound]
- IC50 (MMP-13): 0.1 nM

Compound: O=C(O)CN(CCN(CC(=O)O)CC(=O)O)CC(=O)O [EDTA]
- inhibition of IDE (IDE [7]; ref [18], [40]): does not inhibit IDE except after prolonged incubation

- IC50 (IDE [1]): 11000 nM
Compound: CC(C)C[C@H](CC(=O)NO)C(=O)N[C@H](C(=O)N[C@@H](C)C(=O)NCCN)C(C)(C)C [TAPI-2, reference compound]
- IC50 (TACE): 5000 nM

Compound: N=C(N)NCCC[C@@H](NC(=O)[C@H](N)Cc1ccc(O)cc1)C(=O)N[C@@H](CC(=O)NO)Cc1cccc(F)c1 [3-fluorophenylalanine]
- Ki (IDE [1]; [10]): 7000 nM
